According to US20250011299A1, “PYRIDAZINYL AMINO DERIVATIVES AS ALK5 INHIBITORS” (CHIESI FARMACEUTICI S.P.A., priority 2021, published 2025):
Structures can show the parent of a compound that is named as a salt.

The molecules below were run against T1, human ALK5 (Homo sapiens, UniProt P36897) (assay: ADP-GLO Kinases assay of ALK5 enzymatic activity). Settings: purified recombinant human ALK5, TGFβ1 peptide substrate, pIC50 converted to pKi by Cheng-Prusoff, high ATP protocol (15 μM) for very potent compounds, 25° C.
T1 construct: human ALK5 (recombinant TGF β1 N-term GST-tagged, 80-end); GST (N); purchased
T1 sequence (P36897 80-503 limits assumed): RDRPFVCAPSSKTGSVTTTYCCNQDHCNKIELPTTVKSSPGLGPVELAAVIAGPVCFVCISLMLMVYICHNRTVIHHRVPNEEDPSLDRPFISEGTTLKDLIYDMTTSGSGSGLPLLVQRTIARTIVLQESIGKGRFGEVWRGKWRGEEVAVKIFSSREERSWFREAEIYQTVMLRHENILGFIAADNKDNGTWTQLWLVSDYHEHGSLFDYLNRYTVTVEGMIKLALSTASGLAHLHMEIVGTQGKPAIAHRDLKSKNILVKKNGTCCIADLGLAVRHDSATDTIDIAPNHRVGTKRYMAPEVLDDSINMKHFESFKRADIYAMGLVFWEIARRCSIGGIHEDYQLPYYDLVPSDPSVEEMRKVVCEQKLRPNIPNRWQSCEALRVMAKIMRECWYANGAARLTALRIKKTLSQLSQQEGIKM
Type: biochemical
Description: The enzymatic activity of compounds of the present invention was monitored measuring the formation of ADP using the ADP-GLO Kinases assay. Following the incubation of the purified enzyme, a substrate and ATP, the produced ADP was converted into ATP, which in turn was converted into light by Ultra-Glo Luciferase. The luminescent signal positively correlated with ADP amount and kinase activity. […] Compound and ALK5 kinase were mixed and incubated for 15 mins. […] After an incubation of 120 min, the reaction was stopped, and ADP production detected with ADP-Glo kit according to manufacturer's indications. […] After an incubation of 60 min, the kinase reaction was stopped, and ADP production detected with ADP-Glo kit according to manufacturer's indications. All reaction and incubation steps were performed at 25° C. and the assays were performed in 384-well format and validated using a selection of reference compounds tested in 11-point concentration-response curve. […] Results were expressed as pIC50 (negative logarithm of IC50) and subsequently converted to pKi (negative logarithm of […]) using the Cheng-Prusoff equation. The higher the value of pKi, the greater the inhibition of ALK5 activity.

Ki	Compound
≤ 0.1 nM	CN1CCN(CCC(=O)Nc2cc(Nc3cc(-c4cc(Cl)ccc4F)nnc3OCC(F)(F)F)ccn2)CC1 [Example 50, N-(4-{[6-(5-chloro-2-fluorophenyl)-3-(2,2,2-trifluoroethoxy)pyridazin-4-yl]amino}pyridin-2-yl)-3-(4-methylpiperazin-1-yl)propanamide]
≤ 0.1 nM	CN1CCN(CCC(=O)Nc2cc(Nc3cc(-c4cc(Cl)ccc4F)nnc3OCc3cccc(O)c3)ccn2)CC1 [Example 81, N-(4-{[6-(5-chloro-2-fluorophenyl)-3-[(3-hydroxyphenyl)methoxy]pyridazin-4-yl]amino}pyridin-2-yl)-3-(4-methylpiperazin-1-yl)propanamide]
≤ 0.1 nM	C[C@@H]1CN(CCC(=O)Nc2cc(Nc3cc(-c4cc(Cl)ccc4F)nnc3SCCO)ccn2)C[C@H](C)N1 [Example 178, N-(4-{[6-(5-chloro-2-fluorophenyl)-3-[(2-hydroxyethyl)sulfanyl]pyridazin-4-yl]amino}pyridin-2-yl)-3-(3,5-dimethylpiperazin-1-yl)propanamide]
≤ 0.1 nM	CN1CC2CC1CN2CC(=O)Nc1cc(Nc2cc(-c3cc(Cl)ccc3F)nnc2SCCO)ccn1 (centres unmarked) [Example 25, N-(4-{[6-(5-chloro-2-fluorophenyl)-3-[(2-hydroxyethyl)sulfanyl]pyridazin-4-yl]amino}pyridin-2-yl)-2-{5-methyl-2,5-diazabicyclo[2.2.1]heptan-2-yl}acetamide]
≤ 0.1 nM	CN1CCN(CCC(=O)Nc2cc(Nc3cc(-c4cc(Cl)ccc4F)nnc3N(C)[C@@H]3CCOC3)ccn2)CC1 (single isomer, unassigned) [Example 107, N-(4-{[6-(5-chloro-2-fluorophenyl)-3-[methyl(oxolan-3-yl)amino]pyridazin-4-yl]amino}pyridin-2-yl)-3-(4-methylpiperazin-1-yl)propanamide]
0.398 to 3.16 nM	CN1CCN(CCC(=O)Nc2cc(Nc3cc(-c4cc(Cl)ccc4F)nnc3S(C)(=N)=O)ccn2)CC1 (centres unmarked) [Example 19, N-(4-{[6-(5-chloro-2-fluorophenyl)-3-[imino(methyl)oxo-λ^6-sulfanyl]pyridazin-4-yl]amino}pyridin-2-yl)-3-(4-methylpiperazin-1-yl)propanamide]
≤ 0.1 nM	CN1CCN(CCC(=O)Nc2cc(Nc3cc(-c4cc(Cl)ccc4F)nnc3SCCNC(=O)C3COC(=O)C3)ccn2)CC1 (racemic) [Example 205, N-(2-{[6-(5-chloro-2-fluorophenyl)-4-({2-[3-(4-methylpiperazin-1-yl)propanamido]pyridin-4-yl}amino)pyridazin-3-yl]sulfanyl}ethyl)-5-oxooxolane-3-carboxamide]
≤ 0.1 nM	CN1CCN(CCOc2ccc3c(Nc4cc(-c5cc(Cl)ccc5F)nnc4OCC(F)(F)F)ccnc3c2)CC1 [Example 51, N-[6-(5-chloro-2-fluorophenyl)-3-(2,2,2-trifluoroethoxy)pyridazin-4-yl]-7-[2-(4-methylpiperazin-1-yl)ethoxy]quinolin-4-amine]
0.126 to 0.316 nM	COC(=O)C12CC(COc3nnc(-c4cc(Cl)ccc4F)cc3Nc3ccnc(NC(=O)CCN4CCN(C)CC4)c3)(C1)C2 [Example 125, methyl 3-({[6-(5-chloro-2-fluorophenyl)-4-({2-[3-(4-methylpiperazin-1-yl)propanamido]pyridin-4-yl}amino)pyridazin-3-yl]oxy}methyl)bicyclo[1.1.1]pentane-1-carboxylate]
≤ 0.1 nM	CN(CCC(O)C(F)(F)F)c1nnc(-c2cc(Cl)ccc2F)cc1Nc1ccnc(NC(=O)CN2C[C@@H]3C[C@H]2CN3C)c1 (single isomer, unassigned) [Example 131]
≤ 0.1 nM	CS(=O)(=O)NCCOc1nnc(-c2cc(Cl)ccc2F)cc1Nc1ccnc(N)c1 [Example 45, N-[2-({4-[(2-aminopyridin-4-yl)amino]-6-(5-chloro-2-fluorophenyl)pyridazin-3-yl}oxy)ethyl]methanesulfonamide]
0.126 to 0.316 nM	CN1CCN(CCC(=O)Nc2cc(Nc3cc(-c4cc(Cl)ccc4F)nnc3N3CCO[C@@H](C(=O)O)C3)ccn2)CC1 (stereo in doubt) [Example 134, 4-[6-(5-chloro-2-fluorophenyl)-4-({2-[3-(4-methylpiperazin-1-yl)propanamido]pyridin-4-yl}amino)pyridazin-3-yl]morpholine-2-carboxylate lithium salt]
≤ 0.1 nM	CN1CCN([C@H]2C[C@@H](C(=O)Nc3cc(Nc4cc(-c5cc(Cl)ccc5F)nnc4N(C)CC4(C)CCOC4=O)ncn3)C2)CC1 (single isomer, unassigned; enantiomer 2) [Example 144, Cis Enantiomer 2 N-(6-{[6-(5-chloro-2-fluorophenyl)-3-{methyl[(3-methyl-2-oxooxolan-3-yl)methyl]amino}pyridazin-4-yl]amino}pyrimidin-4-yl)-3-(4-methylpiperazin-1-yl)cyclobutane-1-carboxamide]
≤ 0.1 nM	CN1CCN(CCC(=O)Nc2cc(Nc3cc(-c4cc(Cl)ccc4F)nnc3SCCO)ncn2)CC1 [Example 176, N-(6-{[6-(5-chloro-2-fluorophenyl)-3-[(2-hydroxyethyl)sulfanyl]pyridazin-4-yl]amino}pyrimidin-4-yl)-3-(4-methylpiperazin-1-yl)propanamide]
0.398 to 3.16 nM	COc1ccc2c(Nc3cc(-c4cc(Cl)ccc4F)nnc3OCCN(C)C)ccnc2c1 [Example 39, N-[6-(5-chloro-2-fluorophenyl)-3-[2-(dimethylamino)ethoxy]pyridazin-4-yl]-7-methoxyquinolin-4-amine]
≤ 0.1 nM	COCCOc1nnc(-c2cc(Cl)ccc2F)cc1Nc1ccnc(NC(=O)CCN2CCOCC2)c1 [Example 34, N-(4-{[6-(5-chloro-2-fluorophenyl)-3-(2-methoxyethoxy)pyridazin-4-yl]amino}pyridin-2-yl)-3-(morpholin-4-yl)propanamide]
≤ 0.1 nM	CN1CCN(CCC(=O)Nc2cc(Nc3cc(-c4cc(Cl)ccc4F)nnc3SCc3ccc(C(=O)O)cc3)ccn2)CC1 [Example 203, 4-({[6-(5-chloro-2-fluorophenyl)-4-({2-[3-(4-methylpiperazin-1-yl)propanamido]pyridin-4-yl}amino)pyridazin-3-yl]sulfanyl}methyl)benzoic acid]
≤ 0.1 nM	CN1CCN([C@H]2C[C@@H](C(=O)Nc3cc(Nc4cc(-c5cc(Cl)ccc5F)nnc4SCCO)ccn3)C2)CC1 [Example 83, Cis N-(4-{[6-(5-chloro-2-fluorophenyl)-3-[(2-hydroxyethyl)sulfanyl]pyridazin-4-yl]amino}pyridin-2-yl)-3-(4-methylpiperazin-1-yl)cyclobutane-1-carboxamide]
≤ 0.1 nM	CN1CCN(CCC(=O)Nc2cc(Nc3cc(-c4cc(Cl)ccc4F)nnc3NCc3cccc(O)c3)ccn2)CC1 [Example 101, N-(4-{[6-(5-chloro-2-fluorophenyl)-3-{[(3-hydroxyphenyl)methyl]amino}pyridazin-4-yl]amino}pyridin-2-yl)-3-(4-methylpiperazin-1-yl)propanamide]

Compound	Ki
CN1C2CC1CN([C@H]1C[C@@H](C(=O)Nc3cc(Nc4cc(-c5cc(Cl)ccc5F)nnc4SCCO)ccn3)C1)C2 [Example 175, Cis N-(4-{[6-(5-chloro-2-fluorophenyl)-3-[(2-hydroxyethyl)sulfanyl]pyridazin-4-yl]amino}pyridin-2-yl)-3-{6-methyl-3,6-diazabicyclo[3.1.1]heptan-3-yl}cyclobutane-1-carboxamide]	≤ 0.1 nM
